Results taken from the supplement of paper PMC10307832.

Columns and labels:
Test in all cases: relative viability (nuclei count vs DMSO), 5 days (fraction); higher = more cells survive
[1] = compound: CC(=O)Nc1cccc(-n2c(=O)n(C3CC3)c(=O)c3c(Nc4ccc(I)cc4F)n(C)c(=O)c(C)c32)c1 [Trametinib] + Nc1nc2[nH]cc(CCc3ccc(C(=O)N[C@@H](CCC(=O)O)C(=O)O)cc3)c2c(=O)[nH]1 [Pemetrexed] (partner 0.2 µM)
Summary of the method: (§1)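 The day after seeding in 1536-well plates, lung cancer cell lines were treated by pin tool with a single drug, or with a fixed anchor-drug dose together with five library-drug doses (not always all listed) in √10 steps. After 5 days, a combined fix-and-stain solution (final 0.05% Triton X-100, 1% formaldehyde, 1 ug/ml Hoechst) was added. Nuclei counted on 4× images gave relative viability as treated counts over vehicle counts, reported as the median of duplicate plates.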

[2] = compound: CC(=O)Nc1cccc(-n2c(=O)n(C3CC3)c(=O)c3c(Nc4ccc(I)cc4F)n(C)c(=O)c(C)c32)c1 [Trametinib] + CC(=O)c1c(C)c2cnc(Nc3ccc(N4CCNCC4)cn3)nc2n(C2CCCC2)c1=O [Palbociclib] (partner 0.5 µM)
Summary of the method: as §1

[3] = compound: CN1C=C(C2=CC=CC=C21)/C=C\3/C4=C(C=CC=N4)NC3=O + CS(=O)(=O)CCNCc1ccc(-c2ccc3ncnc(Nc4ccc(OCc5cccc(F)c5)c(Cl)c4)c3c2)o1 [Lapatinib] (partner 2 µM)
Summary of the method: as §1

[4] = compound: CN1C=C(C2=CC=CC=C21)/C=C\3/C4=C(C=CC=N4)NC3=O + CC(C)C[C@H](NC(=O)[C@H](Cc1ccccc1)NC(=O)c1cnccn1)B(O)O [Bortezomib] (partner 0.002 µM)
Summary of the method: as §1

| Cell Line | relative viability ([1]; first compound 0.0025 µM) | relative viability ([1]; first compound 0.007906 µM) | relative viability ([1]; first compound 0.025 µM) | relative viability ([1]; first compound 0.07906 µM) | relative viability ([1]; first compound 0.25 µM) | relative viability ([2]; first compound 0.0025 µM) | relative viability ([2]; first compound 0.007906 µM) | relative viability ([2]; first compound 0.025 µM) | relative viability ([2]; first compound 0.07906 µM) | relative viability ([2]; first compound 0.25 µM) | relative viability ([3]; first compound 0.02 µM) | relative viability ([3]; first compound 0.06325 µM) | relative viability ([3]; first compound 0.2 µM) | relative viability ([3]; first compound 2 µM) | relative viability ([4]; first compound 0.02 µM) | relative viability ([4]; first compound 0.06325 µM) | relative viability ([4]; first compound 0.2 µM) | relative viability ([4]; first compound 2 µM) | relative viability ([3]; first compound 0.6325 µM) | relative viability ([4]; first compound 0.6325 µM) |
| --- | --- | --- | --- | --- | --- | --- | --- | --- | --- | --- | --- | --- | --- | --- | --- | --- | --- | --- | --- | --- |
| NCI-H1792 | 0.751 | 0.645 | 0.363 | 0.328 | 0.154 | 0.6 | 0.51 | 0.49 | 0.382 | 0.303 | 0.588 | 0.96 | 0.8 | 0.672 | 0.784 | 0.977 | 0.835 | 0.889 |  |  |
| NCI-H1651 | 0.554 | 0.618 | 0.426 | 0.47 | 0.278 | 0.489 | 0.501 | 0.51 | 0.459 | 0.432 | 1.02 | 1.09 | 0.761 | 1.09 | 0.811 | 1.03 | 0.931 | 1.06 | 0.836 | 0.885 |
| A549 |  |  |  |  |  |  |  |  |  |  | 1.08 | 0.873 | 0.91 | 1.05 |  |  |  |  | 0.932 |  |
| HCC-366 | 0.24 | 0.213 | 0.236 | 0.188 | 0.169 | 0.307 | 0.287 | 0.137 | 0.0839 | 0.0678 | 0.816 | 0.976 | 0.952 | 1.08 | 0.892 | 0.985 | 1.08 | 1.08 | 1.15 | 1.16 |
| NCI-H522 | 1.04 | 1.07 | 0.75 | 0.742 | 0.752 | 1.01 | 0.936 | 0.693 | 0.859 | 0.668 |  |  |  |  |  |  |  |  |  |  |
| NCI-H1703 |  |  |  |  |  |  |  |  |  |  | 0.962 | 0.941 | 1.11 | 1.29 | 0.407 | 0.401 | 0.258 | 0.356 | 1.25 | 0.41 |
| NCI-H727 |  |  |  |  |  | 0.577 | 0.513 | 0.41 | 0.382 | 0.384 | 0.757 | 0.688 | 0.428 | 0.767 | 0.923 | 0.564 | 0.646 | 1.32 | 0.914 | 1.24 |
| IA-LM |  |  |  |  |  |  |  |  |  |  | 0.947 | 0.617 | 0.546 | 0.448 | 1 | 0.873 | 0.554 | 0.696 | 0.65 | 0.768 |
| SW 900 | 0.439 | 0.471 | 0.487 | 0.459 | 0.224 | 0.56 | 0.49 | 0.483 | 0.457 | 0.383 |  |  |  |  |  |  |  |  |  |  |
| NCI-H1648 | 0.676 | 0.69 | 0.883 | 0.752 | 0.559 | 0.251 | 0.284 | 0.278 | 0.336 | 0.303 |  |  |  |  |  |  |  |  |  |  |
| NCI-H358 | 0.156 | 0.143 | 0.164 | 0.16 | 0.152 | 0.133 | 0.122 | 0.147 | 0.129 | 0.117 | 0.46 | 0.419 | 0.436 | 0.446 |  |  |  |  | 0.55 |  |
| NCI-H1563 | 0.787 | 0.755 | 0.574 | 0.669 | 0.657 |  |  |  |  |  | 1.2 | 0.977 | 0.912 | 1.02 | 1.05 | 0.827 | 0.753 | 0.852 | 0.926 | 0.838 |
| LCLC-103H | 0.482 | 0.495 | 0.523 | 0.5 | 0.519 | 0.484 | 0.44 | 0.483 | 0.468 | 0.507 |  |  |  |  | 0.951 | 0.984 | 0.994 | 1.11 |  | 1.22 |
| LK-2 | 0.226 | 0.305 | 0.213 | 0.184 | 0.102 | 0.551 | 0.603 | 0.704 | 0.738 | 0.223 |  | 0.568 |  | 1.03 |  |  |  |  | 0.756 |  |
| NCI-H2342 | 0.688 | 0.727 | 0.459 | 0.689 | 0.685 | 0.48 | 0.511 | 0.425 | 0.446 | 0.477 |  |  |  |  |  |  |  |  |  |  |
| ChaGo-K-1 | 0.281 | 0.253 | 0.261 | 0.259 | 0.248 | 0.926 | 0.778 | 0.912 | 0.852 | 0.75 |  |  |  |  | 0.902 | 0.94 |  | 0.979 |  | 0.987 |
| NCI-H441 | 0.3 | 0.306 | 0.247 | 0.261 | 0.285 | 0.154 | 0.172 | 0.132 | 0.147 | 0.132 |  |  |  |  | 0.744 |  | 0.545 | 0.774 |  | 0.602 |
| NCI-H2170 | 0.281 | 0.267 |  | 0.271 | 0.237 | 0.4 | 0.419 |  | 0.399 | 0.342 |  | 0.253 | 0.233 | 0.284 |  |  |  |  | 0.264 |  |
| Calu-6 |  |  |  |  |  |  |  |  |  |  | 1.15 | 1 | 1 | 1.01 | 0.985 | 0.923 | 0.87 | 1.04 | 0.968 | 0.946 |
| NCI-H1395 | 0.952 | 0.837 | 0.708 | 0.609 | 0.466 | 0.56 | 0.562 | 0.517 | 0.567 | 0.489 | 0.878 | 1.01 |  | 0.885 |  |  |  |  | 0.948 |  |
| NCI-H1793 | 0.617 | 0.481 | 0.315 | 0.365 | 0.338 | 0.277 | 0.242 | 0.225 | 0.213 | 0.192 | 0.912 | 0.787 | 0.646 | 0.799 |  |  |  |  | 0.448 |  |
| SK-MES-1 | 0.916 | 0.736 | 0.664 | 0.428 | 0.407 | 0.358 | 0.357 | 0.319 | 0.354 | 0.26 | 0.451 | 0.427 | 0.447 | 0.428 |  |  |  |  | 0.454 |  |
| NCI-H1299 |  |  |  |  |  |  |  |  |  |  | 0.979 | 0.974 | 0.989 | 0.979 | 1.05 | 0.957 | 0.965 | 0.988 | 1.03 | 1.06 |
| EBC-1 |  |  |  |  |  |  |  |  |  |  | 0.197 | 0.201 | 0.177 | 0.2 | 0.473 | 0.524 | 0.51 | 0.494 | 0.232 | 0.572 |
| NCI-H1944 | 0.514 | 0.429 | 0.39 | 0.318 | 0.29 | 0.316 | 0.246 | 0.223 | 0.207 | 0.163 | 0.719 | 0.743 |  | 0.727 |  |  |  |  | 0.759 |  |
